Measured values as given in the NIST ThermoML archive (doi:10.1021/je700406p).

Experiment: wn = mass fraction of the nth substance listed
Conditions: Liquid, Vibrating tube method

CC(C)(N)CO [2-amino-2-methylpropan-1-ol] + O
Conditions | mass density [kg/m3]
323.09 K, 19985 kPa, w1 = 0.4976 | 978
323.09 K, 20939 kPa, w1 = 0.4976 | 978.4
323.1 K, 513 kPa, w1 = 0.1997 | 984.2
323.1 K, 1002 kPa, w1 = 0.4002 | 978
323.1 K, 1007 kPa, w1 = 0.1997 | 984.4
323.1 K, 2005 kPa, w1 = 0.1997 | 984.8
323.1 K, 2023 kPa, w1 = 0.4002 | 978.4
323.1 K, 3001 kPa, w1 = 0.4002 | 978.9
323.1 K, 3005 kPa, w1 = 0.1997 | 985.1
323.1 K, 4001 kPa, w1 = 0.1997 | 985.5
323.1 K, 4011 kPa, w1 = 0.4002 | 979.2
323.1 K, 5000 kPa, w1 = 0.1997 | 986
323.1 K, 5000 kPa, w1 = 0.4002 | 979.7
323.1 K, 6002 kPa, w1 = 0.4002 | 980
323.1 K, 6003 kPa, w1 = 0.1997 | 986.3
323.1 K, 6999 kPa, w1 = 0.4002 | 980.4
323.1 K, 7003 kPa, w1 = 0.1997 | 986.8
323.1 K, 7990 kPa, w1 = 0.4002 | 980.8
323.1 K, 8001 kPa, w1 = 0.1997 | 987.1
323.1 K, 9002 kPa, w1 = 0.4002 | 981.2
323.1 K, 9013 kPa, w1 = 0.1997 | 987.5
323.1 K, 9990 kPa, w1 = 0.4002 | 981.6
323.1 K, 10002 kPa, w1 = 0.1997 | 987.9
323.1 K, 10992 kPa, w1 = 0.4002 | 982
323.1 K, 11001 kPa, w1 = 0.1997 | 988.3
323.1 K, 11996 kPa, w1 = 0.4002 | 982.5
323.1 K, 12004 kPa, w1 = 0.1997 | 988.7
323.1 K, 12990 kPa, w1 = 0.4002 | 982.8
323.1 K, 13009 kPa, w1 = 0.1997 | 989
323.1 K, 13994 kPa, w1 = 0.4002 | 983.2
323.1 K, 13999 kPa, w1 = 0.1997 | 989.4
323.1 K, 14992 kPa, w1 = 0.4002 | 983.6
323.1 K, 15001 kPa, w1 = 0.1997 | 989.8
323.1 K, 15995 kPa, w1 = 0.4002 | 984
323.1 K, 16002 kPa, w1 = 0.1997 | 990.2
323.1 K, 16986 kPa, w1 = 0.4002 | 984.4
323.1 K, 17001 kPa, w1 = 0.1997 | 990.6
323.1 K, 17993 kPa, w1 = 0.4002 | 984.8
323.1 K, 18004 kPa, w1 = 0.1997 | 991
323.1 K, 18995 kPa, w1 = 0.4002 | 985.1
323.1 K, 19000 kPa, w1 = 0.1997 | 991.4
323.1 K, 19992 kPa, w1 = 0.4002 | 985.5
323.1 K, 20030 kPa, w1 = 0.1997 | 991.7
323.1 K, 21005 kPa, w1 = 0.1997 | 992.1
323.1 K, 21297 kPa, w1 = 0.4002 | 986
323.1 K, 22004 kPa, w1 = 0.1997 | 992.5
323.1 K, 22998 kPa, w1 = 0.1997 | 992.9
323.1 K, 24004 kPa, w1 = 0.1997 | 993.3
332.01 K, 1005 kPa, w1 = 0.2821 | 976.1
332.01 K, 2004 kPa, w1 = 0.2821 | 976.5
332.01 K, 2997 kPa, w1 = 0.2821 | 977
332.01 K, 4002 kPa, w1 = 0.2821 | 977.4
332.01 K, 5002 kPa, w1 = 0.2821 | 977.8
332.01 K, 5997 kPa, w1 = 0.2821 | 978.2
332.01 K, 6999 kPa, w1 = 0.2821 | 978.6
332.01 K, 7996 kPa, w1 = 0.2821 | 979
332.01 K, 8992 kPa, w1 = 0.2821 | 979.4
332.01 K, 9994 kPa, w1 = 0.2821 | 979.8
332.01 K, 11040 kPa, w1 = 0.2821 | 980.2
332.01 K, 11992 kPa, w1 = 0.2821 | 980.6
332.01 K, 12990 kPa, w1 = 0.2821 | 981
332.01 K, 13989 kPa, w1 = 0.2821 | 981.4
332.01 K, 14989 kPa, w1 = 0.2821 | 981.8
332.01 K, 15990 kPa, w1 = 0.2821 | 982.2
332.01 K, 17000 kPa, w1 = 0.2821 | 982.5
332.01 K, 17987 kPa, w1 = 0.2821 | 982.9
332.01 K, 18991 kPa, w1 = 0.2821 | 983.3
332.01 K, 19984 kPa, w1 = 0.2821 | 983.7
332.01 K, 20986 kPa, w1 = 0.2821 | 984.1
332.99 K, 503 kPa, w1 = 0.1997 | 978.2
332.99 K, 1000 kPa, w1 = 0.1997 | 978.5
332.99 K, 2000 kPa, w1 = 0.1997 | 978.7
332.99 K, 3000 kPa, w1 = 0.1997 | 979.2
332.99 K, 4000 kPa, w1 = 0.1997 | 979.6
332.99 K, 5001 kPa, w1 = 0.1997 | 979.9
332.99 K, 6000 kPa, w1 = 0.1997 | 980.4
332.99 K, 7001 kPa, w1 = 0.1997 | 980.8
332.99 K, 8001 kPa, w1 = 0.1997 | 981.2
332.99 K, 9009 kPa, w1 = 0.1997 | 981.5
332.99 K, 10003 kPa, w1 = 0.1997 | 982
332.99 K, 11001 kPa, w1 = 0.1997 | 982.3
332.99 K, 12000 kPa, w1 = 0.1997 | 982.8
332.99 K, 13000 kPa, w1 = 0.1997 | 983.2
332.99 K, 14000 kPa, w1 = 0.1997 | 983.6
332.99 K, 14999 kPa, w1 = 0.1997 | 984
332.99 K, 16001 kPa, w1 = 0.1997 | 984.3
332.99 K, 17001 kPa, w1 = 0.1997 | 984.8
332.99 K, 18006 kPa, w1 = 0.1997 | 985.2
332.99 K, 19001 kPa, w1 = 0.1997 | 985.5
332.99 K, 20029 kPa, w1 = 0.1997 | 985.9
332.99 K, 21005 kPa, w1 = 0.1997 | 986.3
332.99 K, 22004 kPa, w1 = 0.1997 | 986.7
332.99 K, 23000 kPa, w1 = 0.1997 | 987
332.99 K, 24008 kPa, w1 = 0.1997 | 987.4
333.04 K, 1029 kPa, w1 = 0.4976 | 961.9
333.04 K, 1994 kPa, w1 = 0.4976 | 962.4
333.04 K, 3005 kPa, w1 = 0.4976 | 962.8
333.04 K, 4012 kPa, w1 = 0.4976 | 963.3
333.04 K, 4995 kPa, w1 = 0.4976 | 963.7
333.04 K, 5995 kPa, w1 = 0.4976 | 964.1
333.04 K, 7056 kPa, w1 = 0.4976 | 964.6
333.04 K, 7994 kPa, w1 = 0.4976 | 965
333.04 K, 8994 kPa, w1 = 0.4976 | 965.5
333.04 K, 9997 kPa, w1 = 0.4976 | 965.9
333.04 K, 10996 kPa, w1 = 0.4976 | 966.3
333.04 K, 11991 kPa, w1 = 0.4976 | 966.7
333.04 K, 12988 kPa, w1 = 0.4976 | 967.2
333.04 K, 13992 kPa, w1 = 0.4976 | 967.6
333.04 K, 14999 kPa, w1 = 0.4976 | 968
333.04 K, 15982 kPa, w1 = 0.4976 | 968.4
333.04 K, 16996 kPa, w1 = 0.4976 | 968.9
333.04 K, 17988 kPa, w1 = 0.4976 | 969.3
333.04 K, 18986 kPa, w1 = 0.4976 | 969.7
333.04 K, 19987 kPa, w1 = 0.4976 | 970.1
333.04 K, 21093 kPa, w1 = 0.4976 | 970.6
333.05 K, 1028 kPa, w1 = 0.4002 | 970.4
333.05 K, 1998 kPa, w1 = 0.4002 | 970.8
333.05 K, 3001 kPa, w1 = 0.4002 | 971.2
333.05 K, 4010 kPa, w1 = 0.4002 | 971.6
333.05 K, 5003 kPa, w1 = 0.4002 | 972.1
333.05 K, 5997 kPa, w1 = 0.4002 | 972.5
333.05 K, 7000 kPa, w1 = 0.4002 | 972.9
333.05 K, 8010 kPa, w1 = 0.4002 | 973.3
333.05 K, 8996 kPa, w1 = 0.4002 | 973.7
333.05 K, 9998 kPa, w1 = 0.4002 | 974.2
333.05 K, 10998 kPa, w1 = 0.4002 | 974.6
333.05 K, 12011 kPa, w1 = 0.4002 | 975
333.05 K, 13000 kPa, w1 = 0.4002 | 975.4
333.05 K, 13987 kPa, w1 = 0.4002 | 975.8
